Earlier results in patent US20210128641A1, “COMPOSITIONS AND METHODS FOR TREATING SKIN AND MUCOUS MEMBRANE DISEASES” (The Regents of the University of California, priority 2014, published 2021).

Experiments:
Propionibacterium acnes = settings: in vitro
keratinocytes = settings: in vitro

Substance | growth of Propionibacterium acnes on agar plates (Propionibacterium acnes) | death of keratinocytes caused by Staphylococcus aureus (keratinocytes)
Lactobacillus plantarum | inhibit growth | –
Lactobacillus acidophilus | inhibit growth | –
Lactobacillus reuteri | – | reduced death
